Common to all, as to assay: HPLC product formation, Michaelis-Menten
Holding throughout (format): biochemical, Sarcandra glabra

One test concerns T1, SgRAS.
T1 construct: full length, 449 residues, 49348 Da
The following applies: 0.1 M potassium phosphate, exact conditions in Table S15. An excerpt:
HPLC product formation, Michaelis-Menten on SgRAS

The next test relates to T2, SgHST.
T2 construct: full length, 436 residues, 48424 Da
The following applies: 0.1 M potassium phosphate, exact conditions in Table S12. The source says: HPLC product formation, Michaelis-Menten on SgHST

The next test concerns T3, SgHQT2.
T3 construct: full length (5'-RACE), 441 residues, 48847 Da
The following applies: 0.1 M potassium phosphate, exact conditions in Table S14. An excerpt: HPLC product formation, Michaelis-Menten on SgHQT2

In the next test the test system is T4, SgHQT1.
T4 construct: full length, 427 residues, 47772 Da
Particulars: 0.1 M potassium phosphate, exact conditions in Table S13. The source says:
HPLC product formation, Michaelis-Menten on SgHQT1

Setting [1] is: with 4-hydroxyphenyllactic acid (pHPL).

Each structure is given as a SMILES string.

In general, Km refers to the concentration of substrate that gives half-maximal velocity. As for `O=C(O)[C@H](O)Cc1ccc(O)c(O)c1`, the Km in the test with SgRAS (with p-coumaroyl-CoA) worked out at 867 ± 105 µM.
As to `Nc1c(O)cccc1C(=O)O` [3‐Hydroxyanthranilic acid, 2‐amino‐3‐hydroxybenzoic], the Km with SgHST (with p-coumaroyl-CoA) worked out at 238 ± 19.6 µM.
As to `O=C(O)C(O)Cc1ccc(O)cc1` (stereo not shown) [4‐hydroxyphenyllactic acid], the Km in the test on SgRAS (with p-coumaroyl-CoA) was 544 ± 47.4 µM.
Regarding `CC(C)(COP(=O)(O)OP(=O)(O)OC[C@H]1O[C@@H](n2cnc3c(N)ncnc32)[C@H](O)[C@@H]1OP(=O)(O)O)[C@@H](O)C(=O)NCCC(=O)NCCSC(=O)/C=C/c1ccc(O)c(O)c1` [Caffeoyl‐CoA], the Km in the test with SgHQT2 (with quinic acid) was determined as 213 ± 53.5 µM; in the test on SgHQT1 (with quinic acid), 9.3 ± 2.5 µM; in the test on SgRAS (setting [1]), 57.2 ± 15.7 µM; in the test on SgHST (with shikimic acid), 21.4 ± 6.8 µM.
For the molecule `O=C(O)[C@]1(O)C[C@@H](O)[C@@H](O)[C@H](O)C1` [Quinic acid], the Km came to 11100 ± 1560 µM in the test on SgHQT2 (with p-coumaroyl-CoA) and 5520 ± 713 µM in the test on SgHQT1 (with p-coumaroyl-CoA). The “K m (μM)” value with SgHST (with p-coumaroyl-CoA) is listed as 16 740.0 ± 1833.0 μM.
As for `O=C(O)C1=C[C@@H](O)[C@@H](O)[C@H](O)C1` [Shikimic acid], the “K m (μM)” value in the test on SgHQT1 (with p-coumaroyl-CoA, n = 3 ± SD) is reported as 85 440.0 ± 18 700.0 μM. Also, in the test on SgHST (with p-coumaroyl-CoA), the Km turned out to be 1220 ± 153 µM.
Take `CC(C)(COP(=O)(O)OP(=O)(O)OC[C@H]1O[C@@H](n2cnc3c(N)ncnc32)[C@H](O)[C@@H]1OP(=O)(O)O)[C@@H](O)C(=O)NCCC(=O)NCCSC(=O)/C=C/c1ccc(O)cc1` [p‐Coumaroyl‐CoA]: the Km amounted to 82.3 ± 14.8 µM with SgHQT2 (with quinic acid), 19.9 ± 3.4 µM in the test on SgHQT1 (with quinic acid), 14.6 ± 1.7 µM in the test on SgRAS (setting [1]) and 17.4 ± 4.9 µM in the test on SgHST (with shikimic acid).

The values above are taken from article PMC11875395, “Phenolic metabolism in Sarcandra glabra is mediated by distinct BAHD hydroxycinnamoyltransferases” (The Plant Journal, 2025).
